Consider 2 substances from patent US20250345492A1, “AN ANTIBACTERIAL POLYPEPTIDE COMPOUND, A MEDICAL DEVICE, HYDROGEL AND USE THEREOF” (priority 2020, published 2025).

Ends that are not written are not given here.

The subject of data set [1] is S-2a, clinical isolated drug-resistant strain MRSA. As to conditions: strain S-2a (MRSA). The method, boiled down:
(§1)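 Log-phase cells grown in MH (bacteria) or SD (fungi) medium at 37 °C were plated at 1×10^5 CFU/ml with 2-fold serially diluted peptide (1-256 μM solutions added at twice final concentration). After 12 h at 37 °C, MIC was taken as the first clear well by eye, in triplicate.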

Data set [2] relates to C. tropicalis ATCC750. The conditions noted are these: fungus. The method, boiled down:
as §1

In data set [3] the test system is S-1a, clinical isolated drug-resistant strain MRSA. As to conditions: strain S-1a (MRSA). The method in brief: as §1
Data set [4] relates to P-3c, clinical isolated drug-resistant strain PA. As to conditions: strain P-3c (PA). The method, boiled down:
as §1

For data set [5], the system named is human cervical cancer cell Hela. Description: Cytotoxicity, MTT colorimetry. It is filed as cell-based. Here is the method: (§2) For cytotoxicity determination, the MTT colorimetry was used to evaluate the effects of the compounds on the proliferation of human cervical cancer cell Hela, human embryonic renal epithelial cell HEK293 and mouse mononuclear macrophage RAW264.7.
(§3) Taking compounds 2, 8, 9, 13 and 15 of the present invention as examples, the cytotoxicity of the antibacterial polypeptide compounds was analyzed. Three cell lines were employed for the present invention, namely human cervical cancer cell Hela, human embryonic renal epithelial cell HEK293 and mouse mononuclear macrophage RAW264.7. Hela cells were cultured in RPMI 1640 medium with 10% newborn calf serum, HEK293 cells and RAW264.7 cells were cultured in DMEM medium with 10% fetal bovine serum. Simply, cells (1×10^4 cells/well) were inoculated to a 96-well plate and incubated in an incubator set to 5% CO2 at 37° C. After 24 hours, compounds of different concentrations were added and incubated in the 5% CO2 incubator. After 24 hours, 20 μL of MTT solution with a concentration of 5 mg/mL was added to each well and incubated for 4 hours. After that, the medium was removed with a pipet, and 150 μL of DMSO added to dissolve the purple-blue formazan crystals. The solution was shaken in an oscillator for 5 mins before detecting the absorbance value at 570 nm using the ELISA reader, and then the survival rate was calculated with the formula: (OD dosing group/OD control group)×100% (n=3).

Data set [6] has as its system human embryonic renal epithelial cell HEK293. Description: Cytotoxicity, MTT colorimetry. In kind it is cell-based. Here is the method: as §2, §3
In data set [7] the test system is mouse mononuclear macrophage RAW264.7. Kind of data set: Cytotoxicity, MTT colorimetry. It is filed as cell-based. Here is the method:
as §2, §3

The subject of data set [8] is E. coli (ATCC 25922). Kind of data set: Mouse septic peritonitis model, survival. In kind it is in vivo, Kunming mice. The conditions noted are these: 20 mg/kg intraperitoneally one hour after E. coli inoculation, 7 days of observation. Here is the method:
The determination of the in vivo antibacterial activity of the antibacterial polypeptide compounds is to reflect the antibacterial activity in vivo by detecting the survival rate of mice infected with bacteria or fungi.
Taking compounds 2, 8, 9, 13 and 15 of the present invention as examples, the in vivo antibacterial effects of the antibacterial polypeptide compounds were analyzed. The mice used in this test were Kunming mice, which were placed in constant-temperature environment (22±1° C.). Simply, 36 Kunming mice (18-22 g of body weight) were randomly divided into 6 groups and intraperitoneally injected with 0.2 ml of 3×10^8 CFU/mL E. coli (ATCC 25922) on Day 1 to establish mouse septic peritonitis model. The mice were administered intraperitoneally one hour after inoculation with the bacteria, and then the compounds 2, 8, 9, 13 and 15 were injected intraperitoneally at a dose of 20 mg/kg of body weight. Polymyxin B (20 mg/kg) was selected as a positive reference control, and a negative control group received intraperitoneal injection of sterile saline. After 7 days of observation, the survival rates of mice in administration groups and control groups were calculated to create survival curves.

For orientation: MIC means the smallest concentration in the dilution series that meets the test's criterion for growth inhibition. Take “Pro-Trp-Orn-Leu-Orn-Leu-His-Leu-NH2 (PWXLXLHL; HELM PEPTIDE1{P.W.[Orn].L.[Orn].L.H.L.[am]}$$$$V2.0; N-terminus assumed; SMILES CC(C)C[C@H](NC(=O)[C@H](Cc1c[nH]cn1)NC(=O)[C@H](CC(C)C)NC(=O)[C@H](CCCN)NC(=O)[C@H](CC(C)C)NC(=O)[C@H](CCCN)NC(=O)[C@H](Cc1c[nH]c2ccccc12)NC(=O)[C@@H]1CCCN1)C(N)=O) [Compound 9]”: the MIC is 64 µM in data set [1], 64 µM in data set [3] and 8 µM in data set [4]. In data set [2], the “MIC C. tropicalis ATCC750” value was 16 µM. Further, the “effect on proliferation (inhibitory activity)” value in data set [5], in data set [6] and in data set [7] was “no inhibitory activity” in each case.

Regarding “Pro-Phe-Lys-Leu-Ser-Leu-His-Leu-NH2 (PFKLSLHL-NH2) [Compound J-1, reference compound]”, in data set [8], the “survival rate of mice” value is reported as “about 50%”. Further, the MIC in data set [1] came out at 128 µM; in data set [3], 128 µM; in data set [4], 32 µM. In addition, the “MIC C. tropicalis ATCC750” value in data set [2] came out at 16 µM.
